In publication PMC10082216 (Nature Communications, 2023):
Values joined by “and” are separate entries in the source; they are usually repeats but may differ in a detail not shown here. Equal values may be shown once. “Also recorded” adds a separate entry of the source.

System: stage V gametocytes of P. falciparum (3D7 pULG8-GFP strain)
Test: Post-screening validation with 96-well plate microsphiltration (Paris)
Assay type: cell-based, Plasmodium falciparum
Conditions: for retention 24 h after drug washout: 24 h exposure, remeasured additional 24 h after washout; for confirmation of stiffening activity upon post-screening: DRA, 3D7, Paris laboratory; for Normalized retention rate: gametocytes exposed 24 h
Protocol: Plasmodium falciparum NF54 strain parasites (used for screening campaign) were cultured at 4% hematocrit in RBCs from informed blood donors (blood group A) as previously described. Parasites were taken from the -80 °C freezer, then rapidly melt for 1 minute in a 37 °C water bath. A saline solution was gently added to avoid the lysis. Firstly, NaCl dissolved at 12% in distilled water (1/5 of the volume measured in the cryovial) and then NaCl dissolved at 1.6% (9 times the cryovial’s volume). After that, fresh RBCs were added to allow parasites re-growth. Infected RBCs were kept in RPMI medium (Sigma-Aldrich, cat. no. R4130), supplemented with 10% of decomplemented human serum, hypoxanthine 50 mg/l (Sigma-Aldrich, cat. no. H9636). Biobank of Castilla y Leon and Centro de Transfusiones de Madrid as providers of human red blood cell concentrates. The production of gametocytes was induced from a 0.5% ring-stage parasitemia (day 0). Medium was changed daily to induce gametocytes differentiation, as previously described. At day 17, gametocytes were concentrated using a density gradient medium (NycoPrep 1.077, Progen cat. no. 1114550)[27]. Parasitemia was adjusted by FACS (SYBR-Green and MitoTracker double staining, 3–5% targeted). Hematocrit was adjusted to 0.5% by adding fresh RBCs and controlled by manual counting in a Neubauer chamber (Celeromics, cat. no. 717810). Finally, the gametocyte suspension was poured (45 μL/well) into the compound-containing 384-well microplate, then incubated 24 hours both for the screening campaign and the dose-response analysis. Both asexual and sexual stages were cultivated in RPMI 1640 supplemented with 25 mM HEPES, 50 mg/L hypoxanthine, 50 μg/mL gentami-cin, 10% pooled heat-inactivated human serum (A^+). Each batch of serum was obtained by pooling 10 serum bags from different donors. Serum was kept at −20 °C and thawed in a warmed water bath before use. A new serum batch was prepared when the previous was completed. For dose-response analysis and microfluidics, both the 3D7-pULG8-GFP[67] and the NF54 strain (BEI Resources, cat. no. MRA-1000) were tested. The 3D7 strain was cultivated as described above with the addition of 0.2% NaHCO3 and 2.5 nM of WR99210 for both asexual and sexual stages.
Both fixed-dose and dose-response analyses were performed according to a second protocol (Paris laboratory) to validate the selected hits from primary screening. Briefly, the gametocyte suspension was loaded into a 96-well empty plate (200 µL/well). For each dose-response, first, well volume was doubled and compound was added to obtain 10 µM final concentration. For the dose-response analysis, the gametocyte suspension was then manually serially diluted 1/2 for 12 points, obtaining 5 nM as the lower concentration. The same operation was done with DMSO to have a negative control. After 24 hours of incubation at 37 °C, gametocyte suspensions were loaded into a 96-well filtration plate[28] and microsphiltration was manually performed at 37 °C. Up and downstream samples were incubated for 30 min with Hoechst 33342 nuclear staining (1/1000 diluted in PBS, Thermo Fischer cat. no. H3570), washed, resuspended in 200 µL of PBS and then loaded into an empty 96-well plate before FACSCanto (BD Biosciences, Franklin Lakes, New Jersey, USA) quantification. Data from cytofluorimetry were analyzed with FlowJo V12. As per previously described experiences with this technique, to avoid the risk of microbead layers saturation, a microsphiltration experiment was repeated when the upstream gametocytemia exceeded 10%[25],[69].

| SMILES | retention 24 h after drug washout | confirmation of stiffening activity upon post-screening | IC50 (Plasmodium falciparum, 3D7, 96-well, five independent experiments, read-out: stiffening IC50, median (±SD)) | Normalized retention rate | persistence of stiffening activity after drug washout (mature gametocytes) | confirmation of stiffening activity upon post-screening (listed as L-THP) | Retention rates (single wells, Figure 4b) (gametocytes exposed to drugs 24 h) |
| --- | --- | --- | --- | --- | --- | --- | --- |
| CNC(=O)N1C[C@@H](C)N(c2ccc(C(=O)Nc3ccc(-c4ccc(-c5c[nH]c([C@@H]6CCCN6C(=O)[C@@H](NC(=O)OC)C(C)C)n5)cc4)c(OC(F)(F)F)c3)cn2)C[C@@H]1C [TD-6450] | 43% | confirmed | 0.28 ± 0.58 µM | 27% | ≥ 24 h |  |  |
| COc1cc2c(cc1OC)[C@@H]1Cc3ccc(OC)c(OC)c3CN1CC2 [(S)-(-)-Tetrahydropalmatine] |  |  |  |  |  | not fully confirmed; also recorded: did not confirm |  |
| C[C@H]1Cc2c([nH]c3cc(Cl)c(F)cc23)[C@@]2(N1)C(=O)Nc1ccc(Cl)cc12 [NITD609, cipargamin] | 23% | confirmed |  | 66% |  |  | 36.4701 and 62.0956 and 72.239 |
